# Laboratory results taken from patent US20240409746A1, “AZO IRON COMPLEX DYE, INK COMPOSITION CONTAINING SAME, AND METHOD FOR PRODUCING AZO IRON COMPLEX DYE” (ORIENT CHEMICAL INDUSTRIES CO., LTD., priority 2021, published 2024).
# Assays:
# Assay type in all cases: physicochemical
# [1] = Solubility evaluation (maximum concentration with no insoluble substances on the membrane filter); details: for Maximum concentration (%) Ethanol / Maximum concentration (%) Methyl ethyl ketone: tested at 5%, 10%, 15% and 20%, ultrasonically dispersed 10 minutes, 1 μm PTFE membrane filter
# From the text: (§1) Then the azo iron complex dyes solutions were filtered through a membrane filter (pore size 1 μm, PTFE) under reduced pressure, and the maximum concentrations of the azo iron complex dyes were defined as the concentrations at which it was confirmed that there were no insoluble substances on the membrane filter. Then the hue of the methyl ethyl ketone solution with the azo iron complex dyes concentrations of 5% was visually observed.
# [2] = Visual observation of hue of 5% solution of the azo iron complex dye; details: for Hue of 5% methyl ethyl ketone solution with azo iron complex dye: 5% in methyl ethyl ketone, visually observed
# Description: A solution of the azo iron complex dye A-1 in methyl ethyl ketone was prepared at a concentration of 10 mg/1000 ml (10 ppm). The absorbance of this solution was measured using an ultraviolet-visible spectrophotometer (available from Shimadzu Corporation; trade name UV-1700).
# as §1
# [3] = Electrical conductivity measurement; details: 6% solution in methyl ethyl ketone
# From the text: The azo iron complex dye of the present invention can be suitably used in the ink composition for a CIJ printer. Herein, the electrical conductivity K of the azo iron complex dye is preferably 300-2200 μS/cm, and more preferably 600-2000 μS/cm. As long as the electrical conductivity is within this range, the charge of the ink composition for a CIJ printer containing the azo iron complex dye can be stably and freely controlled, so that the ejection stability of the ink composition can be improved. Note that the electrical conductivity K is measured by inserting and immersing an electrode of an electrical conductivity meter in a 6 mass % methyl ethyl ketone solution of the azo iron complex dye.
# A 6% solution of the azo iron complex dye A-1 in methyl ethyl ketone was prepared and measured using an electrical conductivity meter (available from Eutech Instruments Pte, Ltd.; trade name CyberScan CON100). As a result, the electrical conductivity K was 1530 μS/cm. Furthermore, a 6% solution of the azo iron complex dye A-1 in methyl ethyl ketone was prepared and measured using a conductivity meter (available from Knick Co., Ltd.; trade name Conducell 4USF-PG120). As a result, the electrical conductivity K was […].
# [4] = Dissolution stability of dye solution on standing
structure (smiles),measurement,setting,value
O=[N+]([O-])c1ccc2c(c1)[O][Fe]1([O]c3cc([N+](=O)[O-])ccc3N=Nc3c(ccc4ccccc34)[O]1)[O]c1ccc3ccccc3c1N=N2 (centres unmarked) [B-1],Maximum concentration (%) Ethanol,[1],5%
same,Solubility in both methyl ethyl ketone and ethanol (in words),[1],good solubility
same,Maximum concentration (%) Methyl ethyl ketone,[1],10%
same,Hue of 5% methyl ethyl ketone solution with azo iron complex dye,[2],reddish brown hue
same,Color of solution adjusted to a concentration of 5%,[2],dark brown color
same,Electrical conductivity K,[3]; CyberScan CON100,1450 μS/cm
CCCCN(CCCC)c1ccc2c(c1)[O][Fe]1([O]c3cc(N(CCCC)CCCC)ccc3N=Nc3cc(C)c(N=Nc4ccc(C#N)cc4)cc3[O]1)[O]c1cc(N=Nc3ccc(C#N)cc3)c(C)cc1N=N2 (centres unmarked) [B-2],"Dissolution stability, left overnight","[4]; 5% solution, left overnight (8 hours)",precipitation was observed
same,Dissolution stability in ethanol,[4]; ethanol solution allowed to stand for 10 minutes,precipitate was confirmed
same,Maximum concentration (%) Ethanol,[1],<5%
same,Solubility in both methyl ethyl ketone and ethanol (in words),[1],low solubility
same,Maximum concentration (%) Methyl ethyl ketone,[1],5%
same,Hue of 5% methyl ethyl ketone solution with azo iron complex dye,[2],black color within a practical range
same,Color of solution adjusted to a concentration of 5%,[2],sufficient black color
same,Electrical conductivity K immediately after dissolution,[3]; immediately after dissolution,165 μS/cm
